Patent US20260193267A1, “Solid Forms of Naphthyridine Compounds” (AMGEN INC., priority 2023, published 2026)
Entries after “also recorded” stand apart in the source; their conditions may differ.

Experiments:
[1] = physchem
Excerpt: Suitable nonlimiting examples of counterions for forming salts with Compound A include benzene sulfonic acid (BSA), toluene sulfonic acid (TSA), sulfuric acid, hydrochloric acid, malonic acid, naphthalene-2-sulfonic acid, methane sulfonic acid, oxalic acid, tartaric acid, ethane sulfonic acid, cyclamic acid, maleic acid, or phosphoric acid.

[2] = Dynamic vapor sorption (DVS) moisture sorption; assay type: physicochemical
Experimental: DVS—Method 1: DVS was measured via a SMS (Surface Measurement Systems) DVS Resolution. The relative humidity at 25° C. was calibrated against the deliquescence point of LiCl, Mg(NO3)2 and KCl.
DVS—Method 2: Moisture sorption data was collected using a DVS vapor sorption analyzer. A sample size of approximately 10-20 mg was used in a glass or metal pan. Hygroscopicity was evaluated from 40 to 90 to 0 to 90 to 40% RH in increments of 5% RH or from 40 to 0 to 95 to 0 to 95% RH in increments of 10% RH. Data for adsorption and desorption cycles were collected. Equilibrium criteria were set at 0.002% weight change in 1 minute with a maximum equilibration time of 180 minutes.

[3] = Solubility of Form 1 in aqueous media; assay type: physicochemical; settings: aqueous buffer; aqueous media at pHs of 1-8
[4] = Stability under compression forces representative of tableting; assay type: physicochemical; settings: compression up to 200 MPa
[5] = Physical and chemical stability in excipient blends (ssNMR); assay type: physicochemical; settings: 40° C./75% RH, 25° C./60% RH open, 40° C./75% RH closed

SMILES | pKa [1] | hygroscopicity by DVS ([2]; 0% to 95% relative humidity at 25° C.) | change in form on DVS ([2]; 0-95% relative humidity at 25° C.) | solubility [3] [µg/mL] | form change by DSC and XRPD after compression [4] | physical and chemical stability by ssNMR [5] | degradation related to the Maillard reaction ([5]; after 2 weeks)
Nc1nc2cnc(C(=O)N3CCOC[C@@H]3c3ccc(C(F)(F)F)cc3)cc2c2c1COC2 [Compound A] | 4.27 | – | – | – | – | – | –
Nc1nc2cnc(C(=O)N3CCOC[C@@H]3c3ccc(C(F)(F)F)cc3)cc2c2c1COC2 [Form 1] | – | non-hygroscopic; also recorded: non-hygroscopicity | no observable change in form | > 10 | no form change | physically and chemically stable | no evidence of degradation related to the Maillard reaction
